Laboratory results as given in EP0514268A1, “Substituted amino acid azetidinyl pyridone derivatives, their preparation and use as medicines” (LABORATORIOS DEL DR. ESTEVE, S.A., priority 1991, dated 1992).
≈ marks a conversion by molar mass, not a printed value.

Assays:
[1] = tested on: Strep. faecalis ATCC 10541; assay: Antimicrobial activity, agar dilution; assay type: cell-based, Streptococcus faecalis; details: Enterococcus faecalis, ATCC10541, 20 h, Agar Dextrose dilutions, 37°C, 20 heures, read-out: Activité pharmacologique antimicrobienne (concentrations)
Excerpt: (§1) L'activité pharmacologique antimicrobienne de ces composés a été étudiée selon les références exposées ci-dessous.
(§2) Activité pharmacologique antimicrobienne : G.L. Daquet et Y.A. Chabbect, techniques en bactériologie, Vol. 3, Flammarion Médecine-Sciences, Paris 1972, et W.B. Hugo et A.D. Rusell, Pharmaceutical Microbiology, Blackwell Scientific Publications, London, 1977.
(§3) Milieu de culture et solvant : Agar d'antibiotiques n° 1 (Oxoid CM 327) Bouillon de triptone-soja (Oxoid CM 129) Solution Physiologique Ringer 1/4 (Oxoid BR 52) Agar Dextrose (BBL 11165)
(§4) Microorganismes : "Bacillus subtilis" ATCC 6633 "Citrobacter freundii" ATCC 112606 "Enterobacter aerogenes" ATCC 15038 "Enterobacter cloacae" ATCC 23355 "Bacillus cereus" ATCC 1178 "Escherichia coli" ATCC 10799 "Escherichia coli" ATCC 23559 "Klebsiella pneumoniae" ATCC 10031 "Proteus vulgaris" ATCC 8427 "Morg. morganii" ATCC 8019 "Pseudomonas aeruginosa" ATCC 9721 "Pseudomonas aeruginosa" ATCC 10145 "Salmonella typhimurium" ATCC 14028 "Salmonella typhimurium" ATCC 6539 "Serratia marcescens" ATCC 13880 "Shigella flexnerii" ATCC 12022 "Staphylococcusepidermis" ATCC 155-1 "Staphylococcus aureus" ATCC 25178 "Streptococcus faecalis" ATCC 10541.
(§5) Chacun des microorganismes est ensemencé par strie dans des tubes d'Agar d'antibiotiques n° 1, et mis en incubation pendant 20 heures à 37°C. Ensuite, on prend une anse de culture, on ensemence dans un bouillon de Triptone-soja et on incube pendant 20 heures à 37°C. On dilue à 1/4 la culture obtenue avec une solution physiologique Ringer, de façon à obtenir une suspension normalisée de […] pour chaque organisme.
(§6) A partir d'une solution de 100 µg/ml, chaque produit est dilué dans l'Agar Dextrose (préalablement fondu et maintenu à 50°C) par dilutions successives de façon à obtenir les concentrations suivantes : 64-32-16-8-4-2-1-0,5-0,25-0,125 µg de dérivé/ml du milieu.
(§7) Postérieurement, chaque concentration de chaque produit est répartie dans des boîtes de Petri de 10 cm de diamètre, à raison de 10 ml de milieu par boîte et autant de boîtes que de microorganismes à tester.
(§8) Une fois le milieu refroidi, les boîtes sont ensemencées avec les inoculations à raison de 0,4 ml d'inoculation par boîte. On les étend avec une anse de Driglasky et on recueille le surnageant. Les boîtes ensemencées sont incubées à 37°C pendant 20 heures.
(§9) Les résultats obtenus sont décrits dans les tableaux suivants. Les concentrations sont données en µg/ml.

Ent. cloacae ATCC 23355 = assay: Antimicrobial activity, agar dilution; assay type: cell-based, Enterobacter cloacae; details: Enterobacter cloacae, ATCC23355, 20 h, Agar Dextrose dilutions, 37°C, 20 heures, read-out: Activité pharmacologique antimicrobienne (concentrations)
Excerpt: as §1, §2, §3, §4, §5, §6, §7, §8, §9

[2] = tested on: Escherichia coli ATCC 10799; assay: Antimicrobial activity, agar dilution; assay type: cell-based; details: Escherichia coli, ATCC10799, 20 h, Agar Dextrose dilutions, 37°C, 20 heures, read-out: Activité pharmacologique antimicrobienne (concentrations)
Excerpt: as §1, §2, §3, §4, §5, §6, §7, §8, §9

Sal. typhi ATCC 6539 = assay: Antimicrobial activity, agar dilution; assay type: cell-based; details: Salmonella enterica, 20 h, read-out: Activité pharmacologique antimicrobienne (concentrations)
Excerpt: as §1, §2, §3, §4, §5, §6, §7, §8, §9

[3] = tested on: Staph. epidermidis ATCC 155-1; assay: Antimicrobial activity, agar dilution; assay type: cell-based; details: Staphylococcus epidermidis, ATCC155, 20 h, Agar Dextrose dilutions, 37°C, 20 heures, read-out: Activité pharmacologique antimicrobienne (concentrations)
Excerpt: as §1, §2, §3, §4, §5, §6, §7, §8, §9

[4] = tested on: Bacillus subtilis ATCC 6633; assay: Antimicrobial activity, agar dilution; assay type: cell-based; details: ATCC6633, 20 h, Agar Dextrose dilutions, 37°C, 20 heures, read-out: Activité pharmacologique antimicrobienne (concentrations)
Excerpt: as §1, §2, §3, §4, §5, §6, §7, §8, §9

[5] = tested on: Bacillus cereus ATCC 11778; assay: Antimicrobial activity, agar dilution; assay type: cell-based; details: Bacillus cereus, ATCC11778, 20 h, Agar Dextrose dilutions, 37°C, 20 heures, read-out: Activité pharmacologique antimicrobienne (concentrations)
Excerpt: as §1, §2, §3, §4, §5, §6, §7, §8, §9

[6] = tested on: Shigella flexnerii ATCC 12022; assay: Antimicrobial activity, agar dilution; assay type: cell-based; details: ATCC12022, 20 h, Agar Dextrose dilutions, 37°C, 20 heures, read-out: Activité pharmacologique antimicrobienne (concentrations)
Excerpt: as §1, §2, §3, §4, §5, §6, §7, §8, §9

[7] = tested on: Ps. aeruginosa ATCC 10145; assay: Antimicrobial activity, agar dilution; assay type: cell-based; details: Pseudomonas aeruginosa, ATCC10145, 20 h, Agar Dextrose dilutions, 37°C, 20 heures, read-out: Activité pharmacologique antimicrobienne (concentrations)
Excerpt: as §1, §2, §3, §4, §5, §6, §7, §8, §9

[8] = tested on: Escherichia coli ATCC 23559; assay: Antimicrobial activity, agar dilution; assay type: cell-based; details: Escherichia coli, ATCC23559, 20 h, Agar Dextrose dilutions, 37°C, 20 heures, read-out: Activité pharmacologique antimicrobienne (concentrations)
Excerpt: as §1, §2, §3, §4, §5, §6, §7, §8, §9

[9] = tested on: Proteus vulgaris ATCC 8427; assay: Antimicrobial activity, agar dilution; assay type: cell-based; details: Proteus vulgaris, ATCC8427, 20 h, Agar Dextrose dilutions, 37°C, 20 heures, read-out: Activité pharmacologique antimicrobienne (concentrations)
Excerpt: as §1, §2, §3, §4, §5, §6, §7, §8, §9

Morg. morganii ATCC 8019 = assay: Antimicrobial activity, agar dilution; assay type: cell-based; details: Morganella morganii, ATCC8019, 20 h, Agar Dextrose dilutions, 37°C, 20 heures, read-out: Activité pharmacologique antimicrobienne (concentrations)
Excerpt: as §1, §2, §3, §4, §5, §6, §7, §8, §9

Ps. aeruginosa ATCC 9721 = assay: Antimicrobial activity, agar dilution; assay type: cell-based; details: Pseudomonas aeruginosa, ATCC9721, 20 h, Agar Dextrose dilutions, 37°C, 20 heures, read-out: Activité pharmacologique antimicrobienne (concentrations)
Excerpt: as §1, §2, §3, §4, §5, §6, §7, §8, §9

[10] = tested on: Citr. freundii ATCC 11606; assay: Antimicrobial activity, agar dilution; assay type: cell-based, Citrobacter freundii; details: Citrobacter freundii, ATCC11606, 20 h, Agar Dextrose dilutions, 37°C, 20 heures, read-out: Activité pharmacologique antimicrobienne (concentrations)
Excerpt: as §1, §2, §3, §4, §5, §6, §7, §8, §9

Staph. aureus ATCC 25178 = assay: Antimicrobial activity, agar dilution; assay type: cell-based, Staphylococcus aureus; details: Staphylococcus aureus, ATCC25178, 20 h, Agar Dextrose dilutions, 37°C, 20 heures, read-out: Activité pharmacologique antimicrobienne (concentrations)
Excerpt: as §1, §2, §3, §4, §5, §6, §7, §8, §9

[11] = tested on: Ent. aerogenes ATCC 15038; assay: Antimicrobial activity, agar dilution; assay type: cell-based, Enterobacter aerogenes; details: Klebsiella aerogenes, ATCC15038, 20 h, Agar Dextrose dilutions, 37°C, 20 heures, read-out: Activité pharmacologique antimicrobienne (concentrations)
Excerpt: as §1, §2, §3, §4, §5, §6, §7, §8, §9

[12] = tested on: Sal. typhimurium ATCC 14028; assay: Antimicrobial activity, agar dilution; assay type: cell-based, Salmonella typhimurium; details: Salmonella enterica, 20 h, Agar Dextrose dilutions, 37°C, 20 heures, read-out: Activité pharmacologique antimicrobienne (concentrations)
Excerpt: as §1, §2, §3, §4, §5, §6, §7, §8, §9

[13] = tested on: Serr. marcescens ATCC 13880; assay: Antimicrobial activity, agar dilution; assay type: cell-based, Serratia marcescens; details: Serratia marcescens, ATCC13880, 20 h, Agar Dextrose dilutions, 37°C, 20 heures, read-out: Activité pharmacologique antimicrobienne (concentrations)
Excerpt: as §1, §2, §3, §4, §5, §6, §7, §8, §9

[14] = tested on: Kleb. pneumoniae ATCC 10031; assay: Antimicrobial activity, agar dilution; assay type: cell-based, Klebsiella pneumoniae; details: Klebsiella pneumoniae, ATCC10031, 20 h, Agar Dextrose dilutions, 37°C, 20 heures, read-out: Activité pharmacologique antimicrobienne (concentrations)
Excerpt: as §1, §2, §3, §4, §5, §6, §7, §8, §9

[15] = Solubility in water and at pH 7.4; assay type: physicochemical
Excerpt: Un grand nombre des composés de l'invention manifestent une augmentation de la solubilité dans l'eau ainsi que de la solubilité à pH 7,4 lorsqu'on compare avec les composés de référence. L'augmentation de solubilité au pH physiologique peut favoriser l'absorption du produit et la solubilité élevée dans l'eau permet l'administration du composé par voie parentérale.

| Compound | MIC [1] [µg/mL] | MIC (Ent. cloacae ATCC 23355) [µg/mL] | MIC [2] [µg/mL] | MIC (Sal. typhi ATCC 6539) [µg/mL] | MIC [3] [µg/mL] | MIC [4] [µg/mL] | MIC [5] [µg/mL] | MIC [6] [µg/mL] | MIC [7] [µg/mL] | MIC [8] [µg/mL] | MIC [9] [µg/mL] | MIC (Morg. morganii ATCC 8019) [µg/mL] | MIC (Ps. aeruginosa ATCC 9721) [µg/mL] | MIC [10] [µg/mL] | MIC (Staph. aureus ATCC 25178) [µg/mL] | MIC [11] [µg/mL] | MIC [12] [µg/mL] | MIC [13] [µg/mL] | MIC [14] [µg/mL] | solubility ([15]; pH 7) [µg/mL] | further results |
| --- | --- | --- | --- | --- | --- | --- | --- | --- | --- | --- | --- | --- | --- | --- | --- | --- | --- | --- | --- | --- | --- |
| CCn1cc(C(=O)O)c(=O)c2cnc(N3CCNCC3)nc21 [Acide pipémidique, reference compound] | > 64 | 8 (≈ 26.4 µM) | 16 (≈ 52.7 µM) | 4 (≈ 13.2 µM) | 64 (≈ 211 µM) | 8 (≈ 26.4 µM) | 16 (≈ 52.7 µM) | 4 (≈ 13.2 µM) | 32 (≈ 105 µM) | 2 (≈ 6.59 µM) | 16 (≈ 52.7 µM) | 8 (≈ 26.4 µM) | 32 (≈ 105 µM) | 4 (≈ 13.2 µM) | 64 (≈ 211 µM) | 32 (≈ 105 µM) | 8 (≈ 26.4 µM) | 16 (≈ 52.7 µM) | 2 (≈ 6.59 µM) | – | – |
| C[C@H]1[C@H](N)CN1c1nc2c(cc1F)c(=O)c(C(=O)O)cn2C1CC1 [Exemple 1a, acide 7-[(2S,3R)-2-méthyl-3-amino-1-azétidinyl]-1-cyclopropyl-6-fluoro-1,4-dihydro-4-oxo-1,8-naphtyridine-3-carboxylique, reference compound] | – | – | – | – | – | – | – | – | – | – | – | – | – | – | – | – | – | – | – | 16.5 (≈ 49.6 µM) | solubility ([15]; water): 23 µg/mL (≈ 69.2 µM) |
| NC1CN(c2nc3c(cc2F)c(=O)c(C(=O)O)cn3-c2ccc(F)cc2F)C1 [Exemple 1b, acide 7-(3-amino-1-azétidinyl)-1-(2,4-difluorophényl)-6-fluoro-1,4-dihydro-4-oxo-1,8-naphtyridine-3-carboxylique, reference compound] | – | – | – | – | – | – | – | – | – | – | – | – | – | – | – | – | – | – | – | 3.7 (≈ 9.48 µM) | solubility ([15]; water): 3 µg/mL (≈ 7.69 µM) |
| CCC[C@H](N)C(=O)NC1CN(c2nc3c(cc2F)c(=O)c(C(=O)O)cn3-c2ccc(F)cc2F)C1 [Exemple 4bN] | 4 (≈ 8.17 µM) | 0.5 (≈ 1.02 µM) | 2 (≈ 4.09 µM) | 1 (≈ 2.04 µM) | 2 (≈ 4.09 µM) | 0.25 (≈ 0.511 µM) | 0.5 (≈ 1.02 µM) | 0.12 (≈ 0.245 µM) | 16 (≈ 32.7 µM) | 0.25 (≈ 0.511 µM) | 4 (≈ 8.17 µM) | 2 (≈ 4.09 µM) | 4 (≈ 8.17 µM) | 1 (≈ 2.04 µM) | 4 (≈ 8.17 µM) | 1 (≈ 2.04 µM) | 1 (≈ 2.04 µM) | 2 (≈ 4.09 µM) | 0.12 (≈ 0.245 µM) | – | – |
| C[C@@H](N)C(=O)NC1(C)CN(c2c(F)cc3c(=O)c(C(=O)O)cn(C4CC4)c3c2F)C1 [Exemple 4ca, chlorhydratede l'acide 7-(3-méthyl-3-D-Ala-amino-1-azétidinyl)-1-cyclopropyl-6,8-difluoro-1,4-dihydro-4-oxo-3-quinoléinecarboxylique] | 8 | 0.5 | 1 | 0.5 | 0.5 | 0.25 | 1 | 0.25 | 16 | 0.5 | 2 | 1 | 4 | 1 | 0.5 | 1 | 1 | 2 | 0.25 | – | – |
